Values after ≈ are worked out from the molar mass of the structure shown.
Legend:
PI3K alpha = biological target: T1, PI3K alpha (Homo sapiens, UniProt P42336); experiment: PI3K alpha kinase assay (Kinase-Glo luminescence); assay type: biochemical
T1 construct: p85(iSH2) fusion partner (see partner chain) (N); His tag (C); made in house; host or cells: baculovirus; Tn5 (Trichoplusia ni) or TiniPro insect cells
Outline: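 Read-out: Kinase-Glo luminescence of ATP left after 60 min at room temperature. Conditions: 10 nM PI3Kα (EMV B1075), 1 μM ATP, 10 μg/mL PI substrate, Tris pH 7.5 buffer with MgCl2, NaCl, CHAPS and DTT. IC50s fitted with a four-parameter logistic model.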

Solubility at pH 6.8 = assay type: physicochemical; conditions: pH 6.8, aqueous buffer, thermodynamic from solid; read-out: solubility
Outline: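 Solubility was measured at pH 6.8 following the cited Zhou et al. (2007) procedure.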

[1] = system: PKB Ser473 phosphorylation in Rat1-myr-HA-p110 delta cells; experiment: Reverse protein array assay, PKB Ser473 phosphorylation in Rat1-myr-p110 delta cells; assay type: cell-based; conditions: read-out: p-PKB IC50
Outline: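 Cells: Rat1-myr-HA-p110 alpha/beta/delta, seeded ≥20 h. Lysis on ice 10 min; reverse-phase protein array, 4 lysate dilutions; fluorescence read, relative intensity.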

T1 sequence (P42336 with tags, fused parts or gaps limits assumed): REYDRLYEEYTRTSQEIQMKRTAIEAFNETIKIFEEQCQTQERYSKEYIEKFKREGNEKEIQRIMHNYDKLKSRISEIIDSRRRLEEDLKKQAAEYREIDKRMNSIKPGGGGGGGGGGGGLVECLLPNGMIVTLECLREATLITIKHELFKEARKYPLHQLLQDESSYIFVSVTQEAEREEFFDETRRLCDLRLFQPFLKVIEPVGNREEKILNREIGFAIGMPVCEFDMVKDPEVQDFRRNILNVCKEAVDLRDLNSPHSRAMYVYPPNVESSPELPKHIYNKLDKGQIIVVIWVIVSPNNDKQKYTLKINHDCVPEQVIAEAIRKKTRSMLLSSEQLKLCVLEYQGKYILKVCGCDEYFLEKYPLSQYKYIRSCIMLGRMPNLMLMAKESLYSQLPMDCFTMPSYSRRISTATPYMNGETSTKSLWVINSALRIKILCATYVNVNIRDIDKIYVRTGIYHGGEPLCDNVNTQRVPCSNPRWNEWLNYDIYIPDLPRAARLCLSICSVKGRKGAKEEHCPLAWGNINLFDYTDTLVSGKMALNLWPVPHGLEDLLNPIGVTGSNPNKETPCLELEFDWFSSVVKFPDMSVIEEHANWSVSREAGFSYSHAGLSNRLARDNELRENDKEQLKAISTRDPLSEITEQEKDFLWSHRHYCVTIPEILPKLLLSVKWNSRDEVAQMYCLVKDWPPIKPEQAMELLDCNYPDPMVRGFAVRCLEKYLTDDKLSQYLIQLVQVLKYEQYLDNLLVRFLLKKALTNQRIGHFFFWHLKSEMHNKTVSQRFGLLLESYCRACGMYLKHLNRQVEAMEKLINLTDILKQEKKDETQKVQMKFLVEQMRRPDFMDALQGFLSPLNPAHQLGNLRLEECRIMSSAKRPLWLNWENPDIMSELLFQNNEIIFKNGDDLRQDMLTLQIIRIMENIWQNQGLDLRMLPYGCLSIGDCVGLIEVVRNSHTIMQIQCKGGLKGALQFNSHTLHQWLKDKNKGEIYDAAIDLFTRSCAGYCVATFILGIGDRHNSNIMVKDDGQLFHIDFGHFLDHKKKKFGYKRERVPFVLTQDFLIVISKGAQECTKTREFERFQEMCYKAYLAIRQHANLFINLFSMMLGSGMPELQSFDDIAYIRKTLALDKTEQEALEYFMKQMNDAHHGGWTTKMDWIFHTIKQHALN

| IC50 (PI3K alpha) [nM] | solubility (Solubility at pH 6.8) [µg/mL] | IC50 [1] [nM] | SMILES |
| --- | --- | --- | --- |
| 95 | 4 (≈ 9.12 µM) | 412 | Cc1cc(-n2c(=O)n(C)c3cnc4ccc(-c5ccc(C(F)(F)F)nc5)cc4c32)n(C)n1 [Example 8.2, 1-(2,5-Dimethyl-2H-pyrazol-3-yl)-3-methyl-8-(6-trifluoromethyl-pyridin-3-yl)-1,3-dihydro-imidazo[4,5-c]quinolin-2-one] |
| 30 | > 472 | 9 | CCNc1cc(-c2ccc3ncc4c(c3c2)n(-c2cn(C(C)C)nc2C)c(=O)n4C)cnc1CO [Example 155.3, 8-(5-Ethylamino-6-hydroxymethyl-pyridin-3-yl)-1-(1-isopropyl-3-methyl-1H-pyrazol-4-yl)-3-methyl-1,3-dihydro-imidazo[4,5-c]quinolin-2-one] |
| 23 | 5 (≈ 10.6 µM) | 85 | CCNC(=O)c1cc(-c2ccc3ncc4c(c3c2)n(-c2cn(C)nc2C)c(=O)n4C)cnc1NC [Example 242.1, 5-[1-(1,3-Dimethyl-1H-pyrazol-4-yl)-3-methyl-2-oxo-2,3-dihydro-1H-imidazo[4,5-c]quinolin-8-yl]-N-ethyl-2-methylamino-nicotinamide] |
| 11 | 3 (≈ 7.14 µM) | 15 | Cc1ncc(-c2ccc3ncc4c(c3c2)n(-c2cn(C)nc2Cl)c(=O)n4C)cc1N [Example 88.1, 8-(5-Amino-6-methyl-pyridin-3-yl)-1-(3-chloro-1-methyl-1H-pyrazol-4-yl)-3-methyl-1,3-dihydro-imidazo[4,5-c]quinolin-2-one] |
| 6 | 3 (≈ 6.54 µM) | 105 | CCOc1cc(-c2ccc3ncc4c(c3c2)n(-c2cn(CCO)nc2C)c(=O)n4C)cnc1C [Example 211.2, 8-(5-Ethoxy-6-methyl-pyridin-3-yl)-1-[1-(2-hydroxy-ethyl)-3-methyl-1H-pyrazol-4-yl]-3-methyl-1,3-dihydro-imidazo[4,5-c]quinolin-2-one] |
| 28 | 12 (≈ 27 µM) | 140 | CCn1c(=O)n(-c2cn(C)nc2C)c2c3nc(-c4ccc(OC)c(OC)c4)ccc3ncc21 [Example 251, 8-(3,4-Dimethoxy-phenyl)-1-(1,3-dimethyl-1H-pyrazol-4-yl)-3-ethyl-1,3-dihydro-1,3,5,9-tetraaza-cyclopenta[a]naphthalen-2-one] |

— US20140005163A1 (NOVARTIS AG, priority 2010, published 2014)
